We go through nine compounds from US20260306460A1, “COMPOSITION FOR REMOVING AND INHIBITING SENESCENT CELLS, AND USES THEREOF” (LIFECEUTIX CO., LTD., priority 2023, published 2026).

One assay concerns naturally aged mice. In words: Open field test in naturally aged mice, Example 15. Particulars: untreated aged = 100%; 5 days; doses as p16 mRNA. It is filed as in vivo, mouse. On the procedure:
In the same manner as in Example 7-1 of WO2023-085787 A1, naturally aged mice were administered LX-405 (5% DMSO in PBS solution, 10 mg/kg, intraperitoneal administration), LX-801 (PBS, 100 mg/kg, intraperitoneal administration), LX-1102 (0.5% CMC-Na solution, 100 mg/kg, oral administration), LX-1801 (PBS, 50 mg/kg, intraperitoneal administration), LX-2101 (0.5% CMC-Na solution, 10 mg/kg, intraperitoneal administration), and LX-3403 (mouse anti-PD-1 antibody (BioXcell), 100 μg, intraperitoneal administration) for 5 days under the following conditions. The control group was administered only the solution in the same volume. After drug administration was completed, the method described in each Example below was performed. The mouse was sacrificed in the same manner as Example 7-2 and 7-6 of WO2023-085787 A1. Total RNA was extracted from liver tissue, and qRT-PCR was performed and analyzed using synthesized cDNA. […] The mRNA amounts of p16, MMP3, and IL6 after natural aging were induced were calculated as 100% and compared them with the mRNA amounts of p16, MMP3, and IL6 after treatment with the test compound. Furthermore, an open field test was performed to analyze aging-related frailty in mice using the same method as Example 7-7 of WO2023-085787 A1. […] The amount of activity evaluated after inducing aging was calculated as 100% and compared it with the amount of activity evaluated after treatment with the test compound.

The test system of a further assay is SAOS-2. Description: Suppression of doxorubicin-senescent SAOS-2 tumors in nude mice, Example 19. Conditions: after DOX 10 mg/kg ip; 21 days daily; LX-5701 360 mg/kg po, LX-2101 20 mg/kg ip, LX-2102 10 mg/kg ip; DOX repeated as control. It is filed as in vivo, mouse. On the procedure:
Seven-week-old male BALB/c nude mice (KRIBB Laboratory Animal Resource Center) were acclimated to the experimental environment for one week, after which they were randomly assigned to experimental and control groups. Evaluation was performed using the same method as in Example 2-1 of WO2023-085787 A1. Cultured human osteosarcoma cell lines, SAOS-2 (10^6 cells), were mixed in phosphate-buffered saline (PBS) and administered subcutaneously to anesthetized mice using 2% isoflurane (Sigma). When the tumors reached approximately […], doxorubicin (10 mg/kg) was mixed in a 1:1 solution of distilled water and PBS (pH 7.2) and administered intraperitoneally to induce tumor senescence. After 10 days, LX-5701 mixed in PBS at a concentration of 360 mg/kg was administered orally daily for 21 days, or LX-2101 mixed in PBS solution with 5% DMSO at a concentration of 20 mg/kg or LX-2102 mixed in PBS with 5% DMSO at a concentration of 10 mg/kg was administered intraperitoneally daily for 21 days, and then the tumor size was measured. The control group was repeatedly administered a solution mixed with doxorubicin, and then the tumor size was measured.

Assay [1] deals with naturally aged C57BL6J mice. Description: Serum IL6 and MCP1 (ELISA) in naturally aged mice, Example 21-5. Conditions: untreated aged = 100, LX-5701 360 mg/kg po, LX-2101 20 mg/kg ip, LX-2102 10 mg/kg ip, daily 21 days. It is filed as in vivo, mouse. On the procedure: 22-month-old female C57BL6J mice (KRIBB Laboratory Animal Resource Center) were acclimated to the experimental environment for one week, after which the aged mice were randomly assigned to experimental and control groups. Eight-week-old, non-aged mice served as controls. LX-403 was mixed in a 10% ethanol solution of PEG400 and administered orally at a concentration of 25 mg/kg daily for 21 days, or administered to the skin, joints, or eyes at a concentration of 1 μM. LX-1801 was mixed in distilled water with 4% DMSO, 30% PEG300, and 5% Tween80 and administered to the skin, joints, or eyes at a concentration of 0.4 μM daily for 21 days. LX-2001 was mixed in PBS and administered to the skin, joints, or eyes at a concentration of […] daily for 21 days. LX-2002 was mixed in distilled water with 4% DMSO, 30% PEG300, and 5% Tween80 and administered to the skin, joints, or eyes at a concentration of 2 μM daily for 21 days. […] LX-2005 was mixed in distilled water with 4% DMSO, 30% PEG300, and 5% Tween80 and administered to the skin, joints, or eyes at a concentration of 90 μM daily for 21 days. LX-2007 was mixed in distilled water with 4% DMSO, 30% PEG300, and 5% Tween80 and administered to the skin, joints, or eyes at a concentration of 90 μM daily for 21 days. […] LX-3002 was mixed in distilled water with 4% DMSO, 30% PEG300, and 5% Tween80 and administered orally at a concentration of 10 mg/kg daily for 21 days. […] LX-5411 was mixed in 5% PBS and administered orally at a concentration of 10 mg/kg daily for 21 days or administered to the skin, joints, or eyes at a concentration of 3 μM. LX-5701 was mixed in PBS and administered orally at a concentration of 360 mg/kg daily for 21 days. LX-6807 was mixed in saline and administered intraperitoneally at a concentration of 1 mg/kg daily for 21 days. LX-2101 or LX-2102 was mixed in PBS solution with 5% DMSO and administered intraperitoneally at a concentration of 20 mg/kg or 10 mg/kg, respectively, daily for 21 days. The control group received only the solution in the same volume. After the end of drug administration, the methods described in each example below were performed.
The amounts of IL6 and MCP1, senescence-associated secretory factors (SASPs), in serum collected from mice were measured using an enzyme-linked immunosorbent assay (ELISA Kit, R&D Systems).

The subject of a further assay is SHR/Izm rats. Description: Geriatric hypertension in SHR/Izm rats (p16 mRNA, blood pressure), Example 30, Table 54. Format: in vivo, rat. Conditions: for Blood pressure: tail cuff, untreated 195 (±13.3); for p16 mRNA: thoracic aorta, untreated 100%. On the procedure: Ten-week-old male SHR/Izm rats (SLC), a model of essential hypertension, were acclimated to the experimental environment for one week. […] The control group received only the solution in the same volume. After drug administration, the blood pressure of the experimental animals was measured, and RNA was extracted from the thoracic aorta in the same manner as in Example 7-2 of WO2023-085787 A1. The synthesized cDNA was used for qRT-PCR. Blood pressure measurements were performed three times using a blood pressure monitor (IITC) after the animals were allowed to rest for approximately 10 minutes in a measuring holder with a cuff attached to the caudal vein. […] The mRNA levels after aging were calculated as 100% and compared with the mRNA levels of p16 after treatment with the test compound.

The test system of assay [2] is obesity-induced aged C57BL6J mice. In words: Fatty liver (Oil Red O, AST, ALT) in obesity-aged mice, Example 23-5, Table 45. Format: in vivo, mouse. Particulars: daily for 21 days, untreated 100%; for ALT / AST: serum; for Oil Red O: staining area, liver.
Method: After acclimation to the experimental environment for one week, the mice were randomly assigned to experimental and control groups. […] The control group received only the solution in the same volume. After the end of drug administration, the methods described in each example below were performed.

In the case of `CC1(C)CC[C@]2(NC(=O)C(C)(F)F)CC[C@]3(C)[C@H](C(=O)C=C4[C@@]5(C)C=C(C#N)C(=O)C(C)(C)[C@@H]5CC[C@]43C)[C@@H]2C1` [LX-2101, Omaveloxolone], the “Open Field Test Time in Center” value in the assay with naturally aged mice is 215.3 (±30.8) %. In addition, the “Tumor Diameter” value with SAOS-2 is listed as 6.8 (±1.4) mm. In addition, in assay [1], the IL6 was 49 (±21.8) % and the MCP1 is 58 (±9.5) %.
For `CCCC\C=C/C=C/C=C\CCCCCCCC(=O)O` [LX-2707, Punicic acid], in the assay on SHR/Izm rats, the Blood pressure was 160.1 (±23.1) mmHg and the “p16 mRNA” value is 64 (±8.5) %. Also, in assay [2], the ALT is on record as 64 (±3.1) %, the AST was 75 (±2.1) % and the “Oil Red O” value is given as 67 (±1.7) %.
In the case of `C[C@@H]1CC[C@@]23C[C@H](O)C(=O)[C@@]2(O)[C@]1(C)[C@H](OC(=O)CCl)C[C@@H](C1=CCn2c(=O)n(-c4ccccc4)c(=O)n2C1)[C@@H]3C` [LX-1801, (2S,3aS,4S,5R,7R,8S,8aS,11R)-7-(1,3-Dioxo-2-phenyl-2,3,5,8-tetrahydro-1H-[1,2,4]triazolo[1,2-a]pyridazin-6-yl)-2,3a-dihydroxy-4,8,11-trimethyl-3-oxooctahydro-1H-4,8a-propanoazulen-5-yl 2-Chloroacetate], the “Open Field Test Time in Center” value in the assay with naturally aged mice is given as 252.9 (±28) %.
For `O=C1C2CCN(CC2)C1CNC(=O)C(F)(F)F` (centres unmarked) [LX-5701], the “Tumor Diameter” value with SAOS-2 is given as 6.1 (±4.9) mm. In addition, in the assay on SHR/Izm rats, the Blood pressure is given as 159.8 (±15.5) mmHg and the “p16 mRNA” value is reported as 73 (±5.2) %. For the same compound, in assay [1], the IL6 is 68 (±14.1) % and the MCP1 was 62 (±9.8) %. Besides, in assay [2], the ALT is recorded as 64 (±7.9) %, the AST is 69 (±8.8) % and the “Oil Red O” value is recorded as 55 (±17.2) %.
In the case of `S=C(N/N=C1\CCCc2cccnc21)N1CCN(c2ccccn2)CC1` [LX-801], the “Open Field Test Time in Center” value in the assay on naturally aged mice was 241.8 (±17.9) %.
Tocofersolan [LX-3001]: in the assay with SHR/Izm rats, the Blood pressure is given as 172.9 (±14.6) mmHg and the “p16 mRNA” value is 71 (±3.6) %. In assay [2], the ALT is 71 (±1.3) % and the “Oil Red O” value is on record as 83 (±4.0) %.
Regarding `COC(=O)[C@]12CCC(C)(C)C[C@H]1[C@H]1C(=O)C=C3[C@@]4(C)C=C(C#N)C(=O)C(C)(C)[C@@H]4CC[C@@]3(C)[C@]1(C)CC2` [LX-2102, Bardoxolone methyl], the “Tumor Diameter” value in the assay with SAOS-2 is recorded as 7.1 (±2.6) mm. In assay [1], the IL6 was 58 (±16.1) % and the MCP1 was 61 (±14.0) %.
Turning to `COC(=O)c1ccc([C@H]2c3[nH]c4ccccc4c3C[C@H](C(=O)OC)N2C(=O)CCl)cc1` [LX-405], in the assay on naturally aged mice, the “Open Field Test Time in Center” value is given as 201.5 (±18.3) %.
With `Cc1cccc([C@H](C)c2cnc[nH]2)c1C` [LX-6807, Dexmedetomidine], in the assay with SHR/Izm rats, the Blood pressure was 157.8 (±19.3) mmHg and the “p16 mRNA” value is reported as 66 (±5.0) %. Also, in assay [2], the ALT is recorded as 70 (±6.4) %, the AST was 66 (±4.4) % and the “Oil Red O” value is reported as 53 (±3.9) %.
